Article PMC5379642, “Mechanistic Investigations of the Mitochondrial Complex I Inhibitor Rotenone in the Context of Pharmacological and Safety Evaluation” (Scientific Reports, 2017)

Target: T1, complex I (NADH ubiquinone reductase) (Rattus norvegicus, UniProt A6K8N6+P03889+Q641Y2)
T1 construct: gene Ndufs2; native multi-subunit complex in mitochondria isolated from frozen rat liver; with NADH dehydrogenase [ubiquinone] flavoprotein 1, mitochondrial; NADH dehydrogenase [ubiquinone] flavoprotein 2, mitochondrial; NADH-ubiquinone oxidoreductase 75 kDa subunit, mitochondrial; NADH dehydrogenase [ubiquinone] iron-sulfur protein 3, mitochondrial; NADH dehydrogenase [ubiquinone] iron-sulfur protein 8, mitochondrial; NADH-ubiquinone oxidoreductase chain 2; NADH-ubiquinone oxidoreductase chain 3; NADH-ubiquinone oxidoreductase chain 4; NADH-ubiquinone oxidoreductase chain 4L; NADH-ubiquinone oxidoreductase chain 5; NADH-ubiquinone oxidoreductase chain 6
T1 sequence (Q641Y2 34-463): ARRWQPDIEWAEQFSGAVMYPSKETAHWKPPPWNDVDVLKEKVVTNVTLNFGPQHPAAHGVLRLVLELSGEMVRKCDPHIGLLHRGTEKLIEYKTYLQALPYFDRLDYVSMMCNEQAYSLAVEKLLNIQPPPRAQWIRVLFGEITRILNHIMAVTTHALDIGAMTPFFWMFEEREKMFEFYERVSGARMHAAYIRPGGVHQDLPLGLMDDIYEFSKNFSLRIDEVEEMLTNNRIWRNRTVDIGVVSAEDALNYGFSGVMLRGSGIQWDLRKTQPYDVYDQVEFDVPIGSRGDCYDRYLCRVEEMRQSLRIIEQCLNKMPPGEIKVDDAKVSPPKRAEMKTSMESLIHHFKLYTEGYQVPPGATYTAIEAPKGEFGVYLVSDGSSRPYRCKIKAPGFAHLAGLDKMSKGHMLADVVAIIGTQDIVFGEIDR
T1 sequence (A6K8N6 39-218): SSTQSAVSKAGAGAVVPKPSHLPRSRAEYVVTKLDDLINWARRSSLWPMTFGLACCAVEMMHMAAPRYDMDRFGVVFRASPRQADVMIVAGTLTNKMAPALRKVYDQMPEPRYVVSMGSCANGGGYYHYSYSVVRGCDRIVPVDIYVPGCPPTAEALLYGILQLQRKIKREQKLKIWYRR
T1 sequence (P03889 whole entry): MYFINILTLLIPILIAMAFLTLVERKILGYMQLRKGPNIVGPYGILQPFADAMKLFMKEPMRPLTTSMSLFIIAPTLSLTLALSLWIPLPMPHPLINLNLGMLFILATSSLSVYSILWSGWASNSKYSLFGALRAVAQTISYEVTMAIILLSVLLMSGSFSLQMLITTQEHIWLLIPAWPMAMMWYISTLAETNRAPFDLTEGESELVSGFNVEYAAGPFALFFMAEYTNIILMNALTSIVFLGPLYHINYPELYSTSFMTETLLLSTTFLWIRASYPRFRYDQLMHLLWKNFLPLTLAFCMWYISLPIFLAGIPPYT
T1 sequence (Q5XIH3 21-464 partner): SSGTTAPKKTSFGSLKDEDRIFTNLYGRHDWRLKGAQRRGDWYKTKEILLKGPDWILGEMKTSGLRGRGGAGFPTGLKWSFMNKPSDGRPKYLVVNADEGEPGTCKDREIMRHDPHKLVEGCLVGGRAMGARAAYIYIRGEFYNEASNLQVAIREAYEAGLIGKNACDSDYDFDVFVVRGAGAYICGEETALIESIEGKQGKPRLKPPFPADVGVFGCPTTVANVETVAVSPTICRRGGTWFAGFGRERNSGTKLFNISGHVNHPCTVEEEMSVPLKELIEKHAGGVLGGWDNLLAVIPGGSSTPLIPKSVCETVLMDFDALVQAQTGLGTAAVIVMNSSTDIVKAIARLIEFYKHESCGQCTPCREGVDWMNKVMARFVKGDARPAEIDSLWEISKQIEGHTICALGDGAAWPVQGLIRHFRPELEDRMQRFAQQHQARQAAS
Assay: NADH oxidation at […] nm, rotenone-sensitive rate, mitochondria from dosed rats
Conditions: ex vivo after 400 ppm dietary rotenone for 1, 3 or 14 days, no in vitro dose, decylubiquinone, pH 7.2, KCN and antimycin present

C=C(C)[C@H]1Cc2c(ccc3c2O[C@@H]2COc4cc(OC)c(OC)cc4[C@@H]2C3=O)O1 [rotenone]
% decrease of complex I activity vs time-matched control: 70–80%
